Reference: paper PMC10374969, “SVCT2/SLC23A2 is a sodium-dependent urate transporter: functional properties and practical application” (The Journal of Biological Chemistry, 2023)

What was measured:
Format in all cases: cell-based
[1] = target: T1, human SVCT2 (SVCT2/SLC23A2) (Homo sapiens, UniProt Q9UGH3); experiment: inhibition of [[…]-14C]-urate uptake into transfected HEK293 cells, mock subtracted
T1 construct: full-length wild type, 650 aa, C-terminal EGFP tag (pEGFP-N1), transiently expressed in HEK293 cells
T1 sequence (Q9UGH3 whole entry): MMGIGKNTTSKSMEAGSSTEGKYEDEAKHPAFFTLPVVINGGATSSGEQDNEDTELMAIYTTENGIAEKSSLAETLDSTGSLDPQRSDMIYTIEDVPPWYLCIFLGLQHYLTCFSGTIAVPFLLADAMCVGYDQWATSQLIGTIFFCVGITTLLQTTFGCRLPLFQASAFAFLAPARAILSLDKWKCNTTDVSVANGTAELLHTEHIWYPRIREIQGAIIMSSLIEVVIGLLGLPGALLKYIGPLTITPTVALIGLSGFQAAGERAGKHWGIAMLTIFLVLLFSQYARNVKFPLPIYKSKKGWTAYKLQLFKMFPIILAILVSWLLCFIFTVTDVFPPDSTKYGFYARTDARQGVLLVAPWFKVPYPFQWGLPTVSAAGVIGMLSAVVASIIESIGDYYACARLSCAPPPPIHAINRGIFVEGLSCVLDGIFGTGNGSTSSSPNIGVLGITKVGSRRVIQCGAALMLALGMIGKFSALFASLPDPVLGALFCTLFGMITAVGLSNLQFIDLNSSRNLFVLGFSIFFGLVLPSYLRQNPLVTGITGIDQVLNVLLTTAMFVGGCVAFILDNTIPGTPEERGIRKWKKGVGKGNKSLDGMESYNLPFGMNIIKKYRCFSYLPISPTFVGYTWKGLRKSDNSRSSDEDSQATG

[2] = target: T2, mouse Svct2 (Svct2/Slc23a2) (Mus musculus, UniProt Q9EPR4); experiment: as above
T2 construct: full-length, 648 aa, C-terminal EGFP tag (pEGFP-N1), transiently expressed in HEK293 cells
T2 sequence (Q9EPR4 whole entry): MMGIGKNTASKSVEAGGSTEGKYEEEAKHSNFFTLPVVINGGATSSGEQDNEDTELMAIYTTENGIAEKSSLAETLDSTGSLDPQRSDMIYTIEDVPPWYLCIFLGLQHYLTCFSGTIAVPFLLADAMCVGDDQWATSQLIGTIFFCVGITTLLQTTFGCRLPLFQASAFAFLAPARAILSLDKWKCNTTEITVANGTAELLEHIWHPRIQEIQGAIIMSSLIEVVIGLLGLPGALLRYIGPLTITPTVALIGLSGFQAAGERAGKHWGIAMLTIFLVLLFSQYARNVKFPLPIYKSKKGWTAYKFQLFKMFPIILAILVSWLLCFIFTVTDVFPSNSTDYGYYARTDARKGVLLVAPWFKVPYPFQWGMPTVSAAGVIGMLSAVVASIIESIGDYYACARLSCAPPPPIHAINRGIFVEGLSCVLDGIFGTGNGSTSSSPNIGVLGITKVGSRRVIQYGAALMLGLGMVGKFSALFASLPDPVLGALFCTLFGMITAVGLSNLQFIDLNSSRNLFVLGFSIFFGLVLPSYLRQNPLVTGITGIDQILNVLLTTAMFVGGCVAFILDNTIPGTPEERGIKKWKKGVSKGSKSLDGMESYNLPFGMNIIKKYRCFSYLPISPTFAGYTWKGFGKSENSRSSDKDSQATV

[3] = target: T1, human SVCT2 (SVCT2/SLC23A2); experiment: inhibition of [[…]-14C]-ascorbate uptake into transfected HEK293 cells

IC50 [1] [µM]	IC50 [2] [µM]	inhibition at 500 µM [3] [%]	SMILES
36.6	30.3		O=C1O[C@H]([C@@H](O)CO)C(O)=C1O [ascorbate]
		~20	O=c1[nH]c(=O)c2[nH]c(=O)[nH]c2[nH]1 [urate]
